# Experimental data from PubChem BioAssay (NCI).
#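 Dose response: 5 concentrations. Exposure: 48 h. Format: 96-well plates. Endpoint: linear interpolation; highest concentration if not reached. TGI denotes the concentration required for complete inhibition of growth.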
# Tests used:
# Assay in all cases: NCI tumour cell line growth inhibition, 48 h
# BT-549 breast = system: BT-549 breast
# HCC-2998 colon = system: HCC-2998 colon
# HT29 colon = system: HT29 colon
# T-47D breast = system: T-47D breast
# COLO 205 colon = system: COLO 205 colon
# MDA-MB-231 breast = system: MDA-MB-231 breast
# OVCAR-8 ovarian = system: OVCAR-8 ovarian
# LOX IMVI melanoma = system: LOX IMVI melanoma
# CCRF-CEM leukemia = system: CCRF-CEM leukemia
# HOP-62 NSCLC = system: HOP-62 NSCLC
# OVCAR-3 ovarian = system: OVCAR-3 ovarian
# UO-31 renal = system: UO-31 renal
# EKVX NSCLC = system: EKVX NSCLC
# TK-10 renal = system: TK-10 renal
SMILES,TGI (BT-549 breast) [µM],TGI (HCC-2998 colon) [µM],TGI (HT29 colon) [µM],TGI (T-47D breast) [µM],TGI (COLO 205 colon) [µM],TGI (MDA-MB-231 breast) [µM],TGI (OVCAR-8 ovarian) [µM],TGI (LOX IMVI melanoma) [µM],TGI (CCRF-CEM leukemia) [µM],TGI (HOP-62 NSCLC) [µM],TGI (OVCAR-3 ovarian) [µM],TGI (UO-31 renal) [µM],TGI (EKVX NSCLC) [µM],TGI (TK-10 renal) [µM]
C[C@H]1C(OCCOC2O[C@@H]3O[C@@]4(C)CC[C@H]5[C@H](C)CCC([C@H]2C)[C@@]35O4)O[C@@H]2O[C@@]3(C)CC[C@H]4[C@H](C)CCC1[C@@]24O3 (stereo not given in full),> 100,43.7,> 100,37.5,37.7,75.1,> 100,57.5,82.5,> 100,> 100,–,–,–
CCCC(=O)N/S(=N/S(=O)(=O)c1ccc(Cl)cc1)C(Cl)(Cl)Cl (stereo not given),> 100,> 100,> 100,> 100,–,> 100,> 100,–,> 100,> 100,> 100,> 100,> 100,> 100
NC(C(F)(F)F)(C(F)(F)F)P(=O)(c1ccccc1)c1ccccc1,> 100,> 100,> 100,> 100,> 100,> 100,> 100,> 100,> 100,> 100,> 100,> 100,> 100,> 100
Cn1cc2c(=O)n3ncn(-c4ccc(Br)cc4)c3nc2n1,> 100,> 100,> 100,> 100,> 100,> 100,> 100,–,> 100,–,> 100,> 100,> 100,> 100
COc1ccc(C2SC(N)=Nc3c2c(C)nn3C(=O)c2ccc(Cl)cc2)cc1 (stereo not given),> 10,> 10,> 10,> 10,> 10,> 10,> 10,> 10,> 10,> 10,> 10,–,> 10,> 10
COc1cc2c(cc1OC)C1C(O)C(OC)C=C3CC[N+](C)(C2)C31 (stereo not given),> 100,> 100,> 100,> 100,> 100,> 100,> 100,–,> 100,> 100,> 100,> 100,> 100,> 100
CCOC(=O)c1cc(C2CCN(CC(C)CC)C2=S)c(C(=O)/C=C(/C)N)[nH]1 (stereo not given),> 50,–,> 50,> 50,> 50,> 50,> 50,> 50,> 50,> 50,> 50,> 50,> 50,> 50
CC1(C)CCCCCCCCCC(C)(CCCO)C1=O (stereo not given),31.6,33.7,26.6,29.3,30.1,28.7,35.8,32.9,92.4,30.3,34.1,24.4,36.7,–
COc1cc(C)cc2c1C(=O)C(Br)=CC2=O,23.2,35,35,4.75,3.23,30.2,15.2,25.7,3.92,32.5,11.7,11.3,33.4,5.9
COC(=O)/C(C#N)=C1\NC(=O)CC(c2ccccc2)C1C#N (stereo not given),> 100,> 100,> 100,> 100,> 100,> 100,> 100,> 100,> 100,> 100,> 100,> 100,> 100,> 100
Cc1ccc(S(=O)(=O)[N-]C2C(=O)c3ccccc3C(=O)C2[n+]2cccc(C(N)=O)c2)cc1 (stereo not given),> 100,> 100,> 100,> 100,59.4,> 100,> 100,> 100,> 100,> 100,> 100,> 100,> 100,> 100
COc1cc(/C=C2/SC(c3ccccc3)N(c3ccc(Cl)cc3)C2=O)cc(OC)c1OC (stereo not given),> 100,> 100,> 100,> 100,> 42.6,> 100,> 100,> 100,> 44.8,> 100,> 100,> 100,> 100,> 100
c1ccc([C@@H]2N[C@@]3(CO[Si](c4ccccc4)(c4ccccc4)c4ccccc4)CC[C@H]4CN[C@@H]2[C@H]43)cc1,35.3,3.05,7.17,16.7,3.14,25.9,28.7,24,> 100,31.2,27,22.8,29.5,30.5
CS(=O)(=O)c1[nH]nc2[nH]c(=O)[nH]c(=O)c12,> 10,> 10,> 10,> 10,> 10,> 10,> 10,> 10,> 10,> 10,> 10,–,> 10,> 10
O=c1n(-c2ccccc2)c(=O)n2n1C1CCC2CC1,> 100,–,> 100,> 100,> 100,> 100,> 100,> 100,> 100,> 100,> 100,> 100,> 100,> 100
Cc1cc(NC(=O)C(=O)Cc2cnc3ccccc3n2)c(S(=O)(=O)O)cc1Cl,> 100,> 100,> 100,> 100,> 100,> 100,> 100,> 100,> 100,–,> 100,> 100,> 100,> 100
